# Measurements taken from patent publication US8778896B2, “Levoisovalerylspiramycin I, II or III, preparations, preparation methods and uses thereof” (Shenyang Tonglian Group Co., Ltd., priority 2010, dated 2014).
# Legend:
# [1] = system: streptococcus pneumoniae57; experiment: MIC against the infecting test organism; format: cell-based, streptococcus pneumoniae
# [2] = system: streptococcus pneumoniae18; experiment: MIC against the infecting test organism; format: cell-based, streptococcus pneumoniae
# [3] = system: Chlamydia Pneumoniae CWL-029; experiment: Chlamydia in vitro MIC, HEp-2 cells, immunofluorescence; format: cell-based; conditions: Chlamydia Pneumoniae CWL-029, HEp-2 cells, 72 hours
# [4] = system: streptococcus pneumoniae3; experiment: MIC against the infecting test organism; format: cell-based, streptococcus pneumoniae
# [5] = system: Mycoplasma Urealyticum and Mycoplasma Pneumoniae strains; experiment: Mycoplasma in vitro MIC (U-PPLO broth); format: cell-based; conditions: determined 4 times, final MIC (24 h)
# Protocol: 1. Test methods: adding U-PPLO 0.8 ml to each pore of aseptic 12-pore cell culture plate (adding 0.9 ml to inoculum control pore and 1.0 ml to medium control pore).
# 2. Add 10^4CCU/ml Uu inoculum 0.1 ml to each experimental pore. The final dose in the pore is 10^3CCU/ml (the medium control pore will not be added with inoculum).
# 3. Divide into 3 groups (100 μg/ml, 10 μg/ml and 1 μg/ml antibiotic stock solution), Use aseptic Tip to add antibiotic for test to each pore: 100 μl, 50 μl, 25 μl, 12.5 μl according to the double degradation concentration gradient. (The inoculum and medium control pores will not be added with the antibiotic, and meanwhile the antibiotic control pore is arranged.)
# 4. Blend all pores evenly. Seal the culture plate by tapes and place it in a 37[…] box for culture.
# 5. On 17-24 hours after the test, observe and record the Uu growth situation. When Uu inoculum control pore presents a positive growth, the minimal antibiotic concentration, which can suppress the growth of Uu, is the MIC of sample.
# [6] = system: enterococcus32; experiment: MIC against the infecting test organism; format: cell-based, enterococcus
# [7] = system: Chlamydia Trachomatis B/TW-5/OT; experiment: Chlamydia in vitro MIC, McCoy cells, immunofluorescence; format: cell-based; conditions: 48 hours
# [8] = system: pyogenic streptococcus 772; experiment: MIC against the infecting test organism; format: cell-based
# [9] = system: staphylococcus aureus12; experiment: MIC against the infecting test organism; format: cell-based, staphylococcus aureus
# [10] = system: gonococcus (10); experiment: Clinical isolates, agar double dilution method; format: cell-based
# [11] = system: enterococcus (106); experiment: Clinical isolates, agar double dilution method; format: cell-based
# [12] = system: staphylococcus aureus16; experiment: MIC against the infecting test organism; format: cell-based, staphylococcus aureus
# [13] = system: streptococcus pneumoniae18; experiment: Curative effect on mouse with abdominal infection (ED50); format: in vivo, streptococcus pneumoniae; conditions: streptococcus pneumoniae18, challenging dose 9.6 × 10^4 CFU/0.5 ml, deaths in 7 days, Bliss
# Protocol: (§1) Test method: preparation of infection bacterial liquid: taking out the test bacterial liquid which is kept in a refrigerator at −80[…] to room temperature for about 1 h, then inoculating streptococcus pneumonia, pyogenic streptococcus and enterococcus absorbing 0.1 ml bacterial liquid respectively to 2 ml MH broth (add 10% inactivated horse serum), and inoculating 0.1 ml bacterial liquid of staphylococcus aureus to 2 ml MH broth according to the same method above; putting it in an incubator at 37[…] to be cultivated for 18 h, to obtain original bacterial liquid; diluting the original bacterial liquid with 5% gastric mucin to make animals infected with 100% lethal bacteria, to obtain infection bacterial liquid.
# (§2) The clinical route of administration of carrimycin is proposed to be oral administration, thus intragastric administration is adopted in carrimychin test. Levoisovalerylspiramycin I (obtained in Embodiment 1) and of crystalline compound of levoisovalerylspiramycin I (prepared in Embodiment 27) are fed to animals via […].
# (§3) After the mice are infected, respectively feed each mouse 0.2 ml via intragastric administration at 0.5 to 6 h, and they have no adverse reaction. Observe the number of deaths in 7 days, and calculate the 50% effective dose (ED50) of each drug for the infected mouse and compare the protective effect of drugs by Bliss program.
# [14] = system: streptococcus pneumoniae3; experiment: as above; format: in vivo, streptococcus pneumoniae; conditions: streptococcus pneumoniae3, challenging dose 6.4 × 10^4 CFU/0.5 ml, deaths in 7 days, Bliss
# Protocol: as §1, §2, §3
# [15] = system: streptococcus pneumoniae57; experiment: as above; format: in vivo, streptococcus pneumoniae; conditions: streptococcus pneumoniae57, challenging dose 8.8 × 10^4 CFU/0.5 ml, deaths in 7 days, Bliss
# Protocol: as §1, §2, §3
# [16] = system: pyogenic streptococcus 102; experiment: MIC against the infecting test organism; format: cell-based
# [17] = system: pyogenic streptococcus 102; experiment: Curative effect on mouse with abdominal infection (ED50); format: in vivo; conditions: pyogenic streptococcus 102, challenging dose 7.8 × 10^4 CFU/0.5 ml, deaths in 7 days, Bliss
# Protocol: as §1, §2, §3
# [18] = system: pyogenic streptococcus 772; experiment: as above; format: in vivo; conditions: pyogenic streptococcus 772, challenging dose 6.9 × 10^3 CFU/0.5 ml, deaths in 7 days, Bliss
# Protocol: as §1, §2, §3
# [19] = system: pyogenic streptococcus 119; experiment: as above; format: in vivo; conditions: pyogenic streptococcus 119, challenging dose 4.9 × 10^4 CFU/0.5 ml, deaths in 7 days, Bliss
# Protocol: as §1, §2, §3
# [20] = system: streptococcus pneumoniae (112); experiment: Clinical isolates, agar double dilution method; format: cell-based
# [21] = system: S. epidermidis (115); experiment: Clinical isolates, agar double dilution method; format: cell-based
# [22] = system: staphylococcus aureus21; experiment: MIC against the infecting test organism; format: cell-based, staphylococcus aureus
# [23] = system: pyogenic streptococcus 119; experiment: MIC against the infecting test organism; format: cell-based
# [24] = system: staphylococcus aureus76; experiment: Curative effect on mouse with abdominal infection (ED50); format: in vivo, staphylococcus aureus; conditions: staphylococcus aureus76, challenging dose 5.8 × 10^4 CFU/0.5 ml, deaths in 7 days, Bliss
# Protocol: as §1, §2, §3
# [25] = system: staphylococcus aureus16; experiment: as above; format: in vivo, staphylococcus aureus; conditions: staphylococcus aureus16, challenging dose 5.2 × 10^3 CFU/0.5 ml, deaths in 7 days, Bliss
# Protocol: as §1, §2, §3
# [26] = system: staphylococcus aureus21; experiment: as above; format: in vivo, staphylococcus aureus; conditions: staphylococcus aureus21, challenging dose 4.2 × 10^4 CFU/0.5 ml, deaths in 7 days, Bliss
# Protocol: as §1, §2, §3
# [27] = system: staphylococcus aureus12; experiment: as above; format: in vivo, staphylococcus aureus; conditions: staphylococcus aureus12, challenging dose 4.8 × 10^4 CFU/0.5 ml, deaths in 7 days, Bliss
# Protocol: as §1, §2, §3
# [28] = system: pyogenic streptococcus (93); experiment: Clinical isolates, agar double dilution method; format: cell-based
# [29] = system: hemophilus influenzae (37); experiment: Clinical isolates, agar double dilution method; format: cell-based
# [30] = system: staphylococcus aureus (155); experiment: Clinical isolates, agar double dilution method; format: cell-based
# [31] = system: Chlamydia Trachomatis D/UW-3/Cx; experiment: Chlamydia in vitro MIC, McCoy cells, immunofluorescence; format: cell-based; conditions: 48 hours
# [32] = system: enterococcus32; experiment: Curative effect on mouse with abdominal infection (ED50); format: in vivo, enterococcus; conditions: enterococcus32, challenging dose 5.4 × 10^4 CFU/0.5 ml, deaths in 7 days, Bliss
# Protocol: as §1, §2, §3
# [33] = system: staphylococcus aureus76; experiment: MIC against the infecting test organism; format: cell-based, staphylococcus aureus
# [34] = system: 12 strains of bacteria; experiment: Protective effect on mouse infected with 12 strains of bacteria; format: in vivo; conditions: in words
# Protocol: as §1, §2, §3
# [35] = in vivo; cited from earlier work
compound,measurement,setting,value
acetyl spiramycin [reference compound],MIC,[1],1 µg/mL
same,MIC,[2],0.06 µg/mL
same,MIC,[3],0.5 µg/mL
same,MIC,[4],0.5 µg/mL
same,MIC,[5],0.5 µg/mL
same,MIC,[6],1 µg/mL
same,MIC,[7],4 µg/mL
same,MIC,[8],0.25 µg/mL
same,MIC,[9],2048 µg/mL
same,MIC50,[10],4 µg/mL
same,MIC90,[10],8 µg/mL
same,MIC range,[10],0.12 to 64 µg/mL
same,MIC50,[11],4 µg/mL
same,MIC90,[11],>64 µg/mL
same,MIC,[12],1 µg/mL
same,ED50,[13],37.93 mg/kg
same,ED50,[14],66.96 mg/kg
same,ED50,[15],398.01 mg/kg
same,MIC,[16],0.5 µg/mL
same,ED50,[17],227.07 mg/kg
same,ED50,[18],98.11 mg/kg
same,ED50,[19],117.53 mg/kg
same,MIC50,[20],0.12 µg/mL
same,MIC90,[20],>64 µg/mL
same,MIC50,[21],64 µg/mL
same,MIC90,[21],>64 µg/mL
same,MIC,[22],2048 µg/mL
same,MIC,[23],0.5 µg/mL
same,ED50,[24],66.63 mg/kg
same,ED50,[25],43.58 mg/kg
same,ED50,[26],>500 mg/kg
same,ED50,[27],>500 mg/kg
same,MIC50,[28],0.25 µg/mL
same,MIC90,[28],>64 µg/mL
same,MIC50,[29],0.12 µg/mL
same,MIC90,[29],4 µg/mL
same,MIC50,[30],64 µg/mL
same,MIC90,[30],>64 µg/mL
same,MIC,[31],2 µg/mL
same,ED50,[32],130.34 mg/kg
same,MIC,[33],1 µg/mL
"COC1C(O)CC(=O)OC(C)C/C=C/C=C/C(OC2CCC(N(C)C)C(C)O2)C(C)CC(CC=O)C1OC1OC(C)C(OC2CC(C)(O)C(OC(=O)CC(C)C)C(C)O2)C(N(C)C)C1O (stereo not drawn) [crystal of isovalerylspiramycin I, levoisovalerylspiramycin I]",protective effect (curative effect) on infected mouse,[34]; listed as crystalline compound of isovalerylspiramycin I,better protective effect
same,ED50,[13],8.65 mg/kg
same,ED50,[14],8.39 mg/kg
same,ED50,[15],12.82 mg/kg
same,ED50,[17],60.99 mg/kg
same,ED50,[18],23.37 mg/kg
same,ED50,[19],54.58 mg/kg
same,ED50,[24],22.26 mg/kg
same,ED50,[25],21.33 mg/kg
same,ED50,[26],38.00 mg/kg
same,ED50,[27],107.46 mg/kg
same,ED50,[32],62.11 mg/kg
"COC1C(OC(C)=O)CC(=O)OC(C)C/C=C/C=C/C(OC2CCC(N(C)C)C(C)O2)C(C)CC(CC=O)C1OC1OC(C)C(OC2CC(C)(O)C(OC(=O)CC(C)C)C(C)O2)C(N(C)C)C1O (stereo not drawn) [crystal of isovalerylspiramycin II, levoisovalerylspiramycin II]",protective effect (curative effect) on infected mouse,[34],good protective effect
same,ED50,[13],8.09 mg/kg
same,ED50,[14],7.69 mg/kg
same,ED50,[15],12.04 mg/kg
same,ED50,[17],58.00 mg/kg
same,ED50,[18],21.90 mg/kg
same,ED50,[19],49.94 mg/kg
same,ED50,[24],18.71 mg/kg
same,ED50,[25],16.18 mg/kg
same,ED50,[26]; listed as crystal of isovalcrylspiramycin II,36.09 mg/kg
same,ED50,[27],104.67 mg/kg
same,ED50,[32],56.16 mg/kg
"CCC(=O)OC1CC(=O)OC(C)C/C=C/C=C/C(OC2CCC(N(C)C)C(C)O2)C(C)CC(CC=O)C(OC2OC(C)C(OC3CC(C)(O)C(OC(=O)CC(C)C)C(C)O3)C(N(C)C)C2O)C1OC (stereo not drawn) [crystal of isovalerylspiramycin III, levoisovalerylspiramycin III]",protective effect (curative effect) on infected mouse,[34],good protective effect
same,ED50,[13],8.68 mg/kg
same,ED50,[14],6.45 mg/kg
same,ED50,[15],11.08 mg/kg
same,ED50,[17],52.91 mg/kg
same,ED50,[18],22.81 mg/kg
same,ED50,[19]; listed as crystal of isovaletylspiramycin III,49.94 mg/kg
same,ED50,[24],18.71 mg/kg
same,ED50,[25],19.29 mg/kg
same,ED50,[26],36.09 mg/kg
same,ED50,[27],105.24 mg/kg
same,ED50,[32],65.89 mg/kg
spiramycin,absolute bioavailability by oral administration,[35],30˜40%
